Results as given in US20250120957A1, “TREATMENT OF NEUROPSYCHIATRIC DISORDERS WITH TILIVAPRAM” (Alto Neuroscience, Inc., priority 2023, published 2025).

Legend:
Format in all cases: in vivo, human
[1] = system: healthy patients aged 40 to 65 years old; assay: Phase 1 three-way crossover study: adverse events
Description: (§1) A phase 1 three-way, crossover study was performed as shown in FIG. 1 on healthy patients aged 40 to 65 years old to determine dose and pharmacodynamic outcomes. Patients in the fasted state were orally administered 0.5 or 1.5 mg tilivapram or placebo in the form of an immediate release suspension. Outcomes were measured with a computerized neurocognitive test battery, resting 19 channel EEG, and cognitive task ERPs (event-related potentials). 44 patients were dosed (and used for AE analyses), of which 40 received all three doses (and used for analysis of cognitive, EEG and ERP outcomes).
The adverse events were primarily nausea, as expected given the well-known dose-limiting effects of PDE4 inhibitors on nausea. Approximately 28% of people experienced nausea at the 1.5 mg dose, while only 2% did so at the 0.5 mg dose. […] Only one patient discontinued treatment due to an adverse event at the higher dose (1.5 mg) of tilivapram.

[2] = system: healthy patients aged 40 to 65 years old; assay: Phase 1 three-way crossover study: resting 19 channel EEG and cognitive task ERPs; conditions: vs placebo
Description: as §1
Theta (4-8 Hz) is an EEG rhythm involving connections between the hippocampus and prefrontal cortex. Frontal midline resting theta power is elevated across a range of cognitive disorders, such as schizophrenia, ADHD, Parkinson's disease, Alzheimer's disease and mild cognitive impairment (MCI) (see Newson et al., Front Hum Neurosci., 2019, 12:521 (PMID 30687041)). Increased theta power correlates with poorer cognitive task performance. […] Tilivapram has a wide therapeutic window as there were significant decreases in theta power at both the 0.5 mg and 1.5 mg doses.
Stimulus-induced theta response, such as measured by inter-trial coherence, phase locking factor or event-related spectral perturbation, reflect the brain response during stimulus processing, is reduced in patients with schizophrenia, and the degree of reduction is correlated with the degree of cognitive impairment in these patients (Lee at al., Mol Psychiatry, 2017, 22 (11): 1585-1593, PMID 28167837; Martínez et al., Front Hum Neurosci., 2015, 9:371, PMID 26190988; Xiong et al.,Front Hum Neurosci., 2019, 13:37, PMID 30894804; Hua et al., Biol Psychiatry Cogn Neurosci Neuroimaging., 2023, 8 (12): 1186-1196, PMID: 36931469; Hochberger et al., Int. J. Psychophysiology, 2019, 145:23-29, PMID: 30586570; Wolff et al., Cerebral Cortex, 2022, 32:3441-3456: PMID: 34875019).
Evoked sensory gamma-based responses represent both basic sensory processing as well as higher cognitive functions, such as attention and memory. The onset of a stimulus triggers precisely timed local processing, evident as an increase in gamma-band intertrial phase locking. Gamma-band phase locking at ˜50 ms after stimulus onset is reduced in schizophrenia and other psychotic spectrum disorders such as bipolar disorder (see Roach et al., Schizophr Bull., 34 (5): 907-26, 2008 (PMID 18684772); Javitt et al., Neuropsychopharmacology, 45 (9): 1411-1422, 2020 (PMID 32375159)). […]

[3] = system: healthy patients aged 40 to 65 years old; assay: Phase 1 three-way crossover study: computerized neurocognitive test battery; conditions: for global cognition, effect size d relative to placebo / memory, effect size d relative to placebo: 0.5 mg oral
Description: as §1
Tilivapram has a wide therapeutic window in the finger tapping task as there were significant decreases in latency at both the 0.5 mg and 1.5 mg doses.
The effect of tilivapram versus placebo on cognition was examined between subgroups of the study sample differing in their global cognitive composite score at baseline. […] However, examining only participants with baseline global cognition below healthy norms (z<−0.5), the effect of 0.5 mg tilivapram relative to placebo increased to d=0.861, p=0.034. […] Examining participants with global cognition of z<−0.5, the effect on memory becomes larger and statistically significant (d=0.797, p=0.048).

[4] = system: participants; assay: Phase I open-label 2-way cross-over study of oral solution vs transdermal delivery system: related adverse events
Description: A phase I, open-label, fixed period, 2-way cross-over study was performed to establish the pharmacokinetics and safety of a transdermal delivery system containing tilivapram. In Period 1 Day 1 (P1D1), participants were dosed with 1.0 mg of tilivapram in a liquid oral solution in a fasted state. After a 7-day washout period, participants were dosed with the first set of 4 patches applied by study staff on Period 2 Day 1 (P2D1), which were then removed after 24 hours and 4 new patches applied for an additional 24 hours on Period 2 Day 2 (P2D2) for a total of 48 hours. All but one of the 15 subjects completed the study. One subject withdrew after receiving the oral solution.

[5] = 0.5 and 1.5 mg oral, vs placebo
[6] = oral N=15, transdermal N=14, overall N=15

COc1cnc(C(=O)Nc2c(Cl)c[n+]([O-])cc2Cl)cc1OCC1CC1 [tilivapram, 4-(cyclopropylmethoxy)-N-(3,5-dichloro-1-oxidopyridin-4-yl)-5-methoxypyridine-2-carboxamide]
people experiencing nausea ([1]; 0.5 mg oral dose): 2% | dizziness and lightheadedness ([1]; 0.5 mg to 1.5 mg oral): substantially increased in a dose-related manner | patients who discontinued treatment due to an adverse event ([1]; 1.5 mg oral dose): one | people experiencing nausea ([1]; 1.5 mg oral dose): Approximately 28% | adverse events ([1]; from the 0.5 mg dose to the 1.5 mg dose, oral): increased substantially | theta intertrial coherence at the Cz electrode ([2]; 0.5 mg and 1.5 mg oral, auditory stimulus): increased theta intertrial coherence | theta relative power at the Fz electrode (resting EEG) ([2]; 0.5 and 1.5 mg oral immediate release suspension, fasted): decreased theta relative power | gamma-band phase locking approximately 50 ms after onset of a tone auditory stimulus ([2]; 0.5 and 1.5 mg oral, Pz electrode): increased gamma-band phase locking | mismatch negativity (MMN) at the Fz electrode ([2]; 0.5 and 1.5 mg oral, oddball task): increased MMN | global cognition, effect size d relative to placebo ([3]; full sample, p=0.223): 0.274 | memory, effect size d relative to placebo ([3]; full sample, p=0.359): 0.207 | global cognition, effect size d relative to placebo ([3]; participants with baseline global cognition z<−0.5, p=0.034): 0.861 | memory, effect size d relative to placebo ([3]; participants with global cognition z<−0.5, p=0.048): 0.797 | processing speed (composite z-score of simple reaction time, choice reaction time and Eriksen flanker tasks) [3, 5]: improved processing speed | psychomotor speed (latency in a finger tapping task) [3, 5]: improved psychomotor speed | Number of participants with at least 1 TEAE ([4]; oral 1.0 mg fasted N=15, 4 patches x 2 days N=14, overall N=15): 11 (73.3) n (%) | Abdominal pain [4, 6]: 0 n (%) | Administration site erythema [4, 6]: 0 n (%) | Administration site pain [4, 6]: 0 n (%) | Administration site pruritus [4, 6]: 2 (13.3) n (%) | Arthralgia [4, 6]: 0 n (%) | Asthenia [4, 6]: 1 (6.7) n (%) | Dermatitis acneiform [4, 6]: 0 n (%) | Diarrhea [4, 6]: 1 (6.7) n (%) | Dizziness [4, 6]: 6 (40.0) n (%) | Dyspepsia [4, 6]: 1 (6.7) n (%) | Ear and labyrinth disorders [4, 6]: 1 (6.7) n (%) | Fatigue [4, 6]: 0 n (%) | Gastrointestinal disorders [4, 6]: 3 (20.0) n (%) | General disorders and administration site conditions [4, 6]: 2 (13.3) n (%) | Headache [4, 6]: 6 (40.0) n (%) | Insomnia [4, 6]: 0 n (%) | Irritability [4, 6]: 0 n (%) | Musculoskeletal and connective tissue disorders [4, 6]: 0 n (%) | Nausea [4, 6]: 3 (20.0) n (%) | Nervous system disorders [4, 6]: 8 (53.3) n (%) | Neuralgia [4, 6]: 0 n (%) | Number of TEAEs [4, 6]: 28 | Psychiatric disorders [4, 6]: 0 n (%) | Skin and subcutaneous tissue disorders [4, 6]: 0 n (%) | Vertigo [4, 6]: 1 (6.7) n (%)
